Experimental data taken from ChEMBL document CHEMBL4673197, “Microwave-assisted green synthesis of bile acid derivatives and evaluation of glucocorticoid receptor binding” (RSC Med Chem, 2021).
Activity calls are given as the source filed them. The rule behind the calls is not given here.

Experiments:
Assay type in all cases: cell-based
[1] = target: T1, Glucocorticoid receptor (Rattus norvegicus) (UniProt P06536); experiment: Binding affinity to enhanced YFP tagged rat glucocorticoid receptor (497-795)-LBD expressed in Saccharomyces cerevisiae FY250 cells by measuring increase in fluorescence intensity incubated at 100 uM for 15 hrs by fluorescence microscopy
T1 sequence (whole entry): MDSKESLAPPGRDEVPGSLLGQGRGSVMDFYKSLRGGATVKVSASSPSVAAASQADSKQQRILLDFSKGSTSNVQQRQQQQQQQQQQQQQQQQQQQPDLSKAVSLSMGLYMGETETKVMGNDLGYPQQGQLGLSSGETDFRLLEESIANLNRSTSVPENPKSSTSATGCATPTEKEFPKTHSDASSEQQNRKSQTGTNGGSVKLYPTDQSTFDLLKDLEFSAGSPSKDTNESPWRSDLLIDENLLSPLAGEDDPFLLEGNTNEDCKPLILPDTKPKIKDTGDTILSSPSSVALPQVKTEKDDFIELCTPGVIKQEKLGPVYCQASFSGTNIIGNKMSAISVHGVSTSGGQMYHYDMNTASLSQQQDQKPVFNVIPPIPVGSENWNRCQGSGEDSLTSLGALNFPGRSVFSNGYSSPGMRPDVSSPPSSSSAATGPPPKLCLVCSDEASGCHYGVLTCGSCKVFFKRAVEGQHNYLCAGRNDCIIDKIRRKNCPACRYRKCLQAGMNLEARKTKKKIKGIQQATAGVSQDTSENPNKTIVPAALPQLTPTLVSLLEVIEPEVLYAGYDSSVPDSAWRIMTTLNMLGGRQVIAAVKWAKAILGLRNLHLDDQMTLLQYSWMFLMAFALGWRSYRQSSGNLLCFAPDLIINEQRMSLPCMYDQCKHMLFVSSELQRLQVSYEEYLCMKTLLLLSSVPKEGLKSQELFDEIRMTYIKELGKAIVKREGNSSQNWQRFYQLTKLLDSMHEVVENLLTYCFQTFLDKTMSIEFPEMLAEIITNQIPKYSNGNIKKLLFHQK

[2] = target: T1, Glucocorticoid receptor (Rattus norvegicus); experiment: Binding affinity to enhanced YFP tagged rat glucocorticoid receptor (497-795)-LBD expressed in Saccharomyces cerevisiae FY250 cells by measuring fluorescence changes incubated for 15 hrs by fluorescence spectroscopy
[3] = target: T1, Glucocorticoid receptor (Rattus norvegicus); experiment: Binding affinity to enhanced YFP tagged rat glucocorticoid receptor (497-795)-LBD expressed in Saccharomyces cerevisiae FY250 cells by measuring fluorescence changes incubated at 100 uM for 15 hrs by fluorescence spectroscopy

Activity [1] | Activity [2] | SMILES | Activity [3]
Active | Dose-dependent effect | C[C@]12C=CC(=O)C=C1CC[C@@H]1[C@@H]2[C@@H](O)C[C@@]2(C)[C@H]1CC[C@]2(O)C(=O)CO | 
Active |  | C[C@H](CCC(=O)Nc1ccccc1)[C@H]1CC[C@H]2[C@@H]3CC[C@@H]4C[C@H](O)CC[C@]4(C)[C@H]3C[C@H](O)[C@]12C | Active

SMILES | Activity [1] | Activity [2] | Activity [3]
C[C@H](CCC(=O)O)[C@H]1CC[C@H]2[C@@H]3CC[C@@H]4CCCC[C@]4(C)[C@H]3CC[C@]12C | Active |  | Active
